US5834453A, “Methods for the manufacture and use of antimicrobial sterol conjugates” (Lehigh University, priority 1997, dated 1998)
Converted amounts (≈) assume the structure as drawn. “Also recorded” adds a separate entry of the source. Where two headings read alike, the source gives them in different places.

Legend:
fungi = assay: Antimicrobial activity (MIC), fungi; format: cell-based; settings: of all the mimics tested
Method: (§1) The antimicrobial activity of the compounds according to the present invention were compared with the results obtained for squalamine as reported in Proc. Nat. Acad. Sci. USA 90:1354 (1993), supra, the disclosure of which is incorporated in toto herein. The data reported in the following table is the minimum inhibitory concentration (MIC) required for complete inhibition of microbial growth. The MIC was determined utilizing known micro-broth dilution methods in which inocula of 10^6 /ml of the test organism were incubated in 0.5× trypticase soy broth at 35° C. for 24 hours. MIC's were also tested under various pH conditions, with calcium chloride or magnesium chloride, or with immobilized horse serum.

sheep red blood cells = assay: Hemolytic activity, minimal hemolytic concentration (MHC); format: cell-based;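 for MCC: MCC here is the minimal hemolytic concentration (MHC)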
Method: (§2) Hemolytic activity of the squalamine mimics according to the present invention were also studied by incubating sheep red blood cells for 24 hours at 37° C. in saline (final concentration of 0.5%) with or without respective concentrations of the squalamine mimics. The minimal hemolytic concentration (MHC) was determined as the lowest concentration of a mimic that raised visible hemolysis.

[1] = as above; format: cell-based, sheep
Method: as §2

S. agalactiae (13813) = assay: MIC, micro-broth dilution; format: cell-based; settings: Streptococcus agalactiae, 35° C., 24 hours, read-out: ANTIMICROBIAL ACTIVITY (MIC)
Method: as §1
(§3) The numbers in parentheses contained in the table correspond to accession numbers with the American Type Culture Collection (reference strains were either obtained from the American Type Culture Collection or from the Microbiology Laboratory at Memorial Sloan-Kettering Cancer Center; Bacterial strains were maintained on Columbia 5% sheep blood agar plates, and fungi were maintained on Sabouraud Dextrose agar plates).

C. neoformans (M68979) = assay: MIC, micro-broth dilution; format: cell-based; settings: Cryptococcus neoformans, 24 h, read-out: ANTIMICROBIAL ACTIVITY (MIC)
Method: as §1, §3

A. fumigatus (H1120) = assay: MIC, micro-broth dilution; format: cell-based; settings: Aspergillus fumigatus, 35° C., 24 hours, read-out: ANTIMICROBIAL ACTIVITY (MIC)
Method: as §1, §3

P. aeruginosa (2853) [2] = assay: MIC, micro-broth dilution; format: cell-based; settings: Pseudomonas aeruginosa, 24 h, read-out: ANTIMICROBIAL ACTIVITY (MIC)
Method: as §1, §3

S. epidermidis (12228) = assay: MIC, micro-broth dilution; format: cell-based; settings: Staphylococcus epidermidis, 35° C., 24 hours, read-out: ANTIMICROBIAL ACTIVITY (MIC)
Method: as §1, §3

P. aeruginosa (10145) = assay: MIC, micro-broth dilution; format: cell-based; settings: Pseudomonas aeruginosa, 35° C., 24 hours, read-out: ANTIMICROBIAL ACTIVITY (MIC)
Method: as §1, §3

S. marcescens (13880) [3] = assay: MIC, micro-broth dilution; format: cell-based; settings: for MIC: Serratia marcescens, 24 h, read-out: ANTIMICROBIAL ACTIVITY (MIC)
Method: as §1, §3

S. aureus (25923) = assay: MIC, micro-broth dilution; format: cell-based; settings: Staphylococcus aureus, 35° C., 24 hours, read-out: ANTIMICROBIAL ACTIVITY (MIC)
Method: as §1, §3

S. aureus (H20809) = assay: MIC, micro-broth dilution; format: cell-based; settings: Staphylococcus aureus, 24 h, read-out: ANTIMICROBIAL ACTIVITY (MIC)
Method: as §1, §3

S. aureus (29213) [4] = assay: MIC, micro-broth dilution; format: cell-based; settings: Staphylococcus aureus, 24 h, read-out: ANTIMICROBIAL ACTIVITY (MIC)
Method: as §1, §3

P. vulgaris (13315) = assay: MIC, micro-broth dilution; format: cell-based; settings: Proteus vulgaris, 35° C., 24 hours, read-out: ANTIMICROBIAL ACTIVITY (MIC)
Method: as §1, §3

E. faecium (T6480-9) = assay: MIC, micro-broth dilution; format: cell-based; settings: Enterococcus faecium, 35° C., 24 hours, read-out: ANTIMICROBIAL ACTIVITY (MIC)
Method: as §1, §3

A. fumigatus (H29709) = assay: MIC, micro-broth dilution; format: cell-based; settings: Aspergillus fumigatus, 35° C., 24 hours, read-out: ANTIMICROBIAL ACTIVITY (MIC)
Method: as §1, §3

E. faecalis (29212) = assay: MIC, micro-broth dilution; format: cell-based; settings: Enterococcus faecalis, 35° C., 24 hours, read-out: ANTIMICROBIAL ACTIVITY (MIC)
Method: as §1, §3

K. pneumoniae (13883) = assay: MIC, micro-broth dilution; format: cell-based; settings: Klebsiella pneumoniae, read-out: ANTIMICROBIAL ACTIVITY (MIC)
Method: as §1, §3

C. albicans (90028) = assay: MIC, micro-broth dilution; format: cell-based; settings: Candida albicans, 35° C., 24 hours, read-out: ANTIMICROBIAL ACTIVITY (MIC)
Method: as §1, §3

S. pneumoniae (6305) = assay: MIC, micro-broth dilution; format: cell-based; settings: Streptococcus pneumoniae, 35° C., 24 hours, read-out: ANTIMICROBIAL ACTIVITY (MIC)
Method: as §1, §3

E. coli (25922) = assay: MIC, micro-broth dilution; format: cell-based; settings: Escherichia coli, 35° C., 24 hours, read-out: ANTIMICROBIAL ACTIVITY (MIC)
Method: as §1, §3

C. neoformans (90012) = assay: MIC, micro-broth dilution; format: cell-based; settings: Cryptococcus neoformans, 24 h, read-out: ANTIMICROBIAL ACTIVITY (MIC)
Method: as §1, §3

E. cloacae (13047) = assay: MIC, micro-broth dilution; format: cell-based; settings: Enterobacter cloacae, 35° C., 24 hours, read-out: ANTIMICROBIAL ACTIVITY (MIC)
Method: as §1, §3

S. pyrogenes (19615) = assay: MIC, micro-broth dilution; format: cell-based; settings: 24 h, read-out: ANTIMICROBIAL ACTIVITY (MIC)
Method: as §1, §3

[5] = test system: various groups of microorganisms; assay: Antimicrobial activity (MIC), all microorganisms tested; format: cell-based
Method: as §1, §3

gram positive cocci = assay: Antimicrobial activity (MIC), gram positive cocci; format: cell-based; settings: of all the mimics tested
Method: as §1

S. marcescens (13880) [6] = settings: known; cited from earlier work
[7] = test system: various groups of microorganisms; settings: broad spectrum of microorganisms; cited from earlier work
P. aeruginosa (2853) [8] = settings: P. aeruginosa ATCC 27853; as reported in the literature; cited from earlier work
S. aureus (29213) [9] = settings: S. aureus ATCC 29213; as reported in the literature; cited from earlier work
P. vulgaris = P. vulgaris ATCC 13883; as reported in the literature; cited from earlier work

| SMILES | hemolytic activity (in words) (sheep red blood cells) | MIC (S. agalactiae (13813)) [µg/mL] | MIC (C. neoformans (M68979)) [µg/mL] | MIC (A. fumigatus (H1120)) [µg/mL] | MIC (P. aeruginosa (2853) [2]) [µg/mL] | MIC (S. epidermidis (12228)) [µg/mL] | MIC (P. aeruginosa (10145)) [µg/mL] | MIC (S. marcescens (13880) [3]) [µg/mL] | MIC (S. aureus (25923)) [µg/mL] | MIC (S. aureus (H20809)) [µg/mL] | MIC (S. aureus (29213) [4]) [µg/mL] | MIC (P. vulgaris (13315)) [µg/mL] | MIC (E. faecium (T6480-9)) [µg/mL] | MIC (A. fumigatus (H29709)) [µg/mL] | MIC (E. faecalis (29212)) [µg/mL] | MIC (C. albicans (90028)) [µg/mL] | MIC (S. pneumoniae (6305)) [µg/mL] | MIC (E. coli (25922)) [µg/mL] | MIC (C. neoformans (90012)) [µg/mL] | MIC (E. cloacae (13047)) [µg/mL] | further results |
| --- | --- | --- | --- | --- | --- | --- | --- | --- | --- | --- | --- | --- | --- | --- | --- | --- | --- | --- | --- | --- | --- |
| C[C@H](CCC(=O)NCCCNCCCCNCCCN)[C@H]1CC[C@H]2[C@@H]3CC[C@@H]4C[C@H](O)CC[C@]4(C)[C@H]3CC[C@]12C [SM-25] | unwanted hemolytic activity | 0.78 (≈ 1.39 µM) | 0.39 (≈ 0.695 µM) | 12.5 (≈ 22.3 µM) | 0.78 (≈ 1.39 µM) | 0.39 (≈ 0.695 µM) | 3.13 (≈ 5.58 µM) | > 100 | 0.78 (≈ 1.39 µM) | 0.39 (≈ 0.695 µM) | 0.78 (≈ 1.39 µM) | 12.5 (≈ 22.3 µM) | 3.13 (≈ 5.58 µM) | 12.5 (≈ 22.3 µM) | 3.13 (≈ 5.58 µM) | 3.13 (≈ 5.58 µM) | 3.13 (≈ 5.58 µM) | 1.56 (≈ 2.78 µM) | 0.39 (≈ 0.695 µM) | > 100 | potency ranking against fungi (fungi): most potent activity against gram positive cocci and fungi of all the mimics tested; minimal hemolytic concentration (MHC) at 24 h ([1]; sheep red blood cells, 24 hours at 37° C. in saline): 50 µg/mL; MIC (K. pneumoniae (13883); 24 h): > 100 µg/mL; MIC (S. pyrogenes (19615)): 0.78 µg/mL (≈ 1.39 µM); antimicrobial activity (in words) [5]: highly active; also recorded: more activity than SM-8, SM-14, and SM-22; potency ranking against gram positive cocci (gram positive cocci): most potent activity against gram positive cocci and fungi of all the mimics tested |
| C[C@H](CCC(=O)NCCCNCCCCNCCCN)[C@H]1CC[C@H]2[C@@H]3[C@H](O)C[C@@H]4C[C@H](O)CC[C@]4(C)[C@H]3CC[C@]12C [SM-34] | unwanted hemolytic activity | 1.56 (≈ 2.7 µM) | 3.13 (≈ 5.43 µM) | 12.5 (≈ 21.7 µM) | 12.5 (≈ 21.7 µM) | 0.78 (≈ 1.35 µM) | 25 (≈ 43.3 µM) | 12.5 (≈ 21.7 µM) | 0.78 (≈ 1.35 µM) | 1.56 (≈ 2.7 µM) | 1.56 (≈ 2.7 µM) | 12.5 (≈ 21.7 µM) | 6.25 (≈ 10.8 µM) | 12.5 (≈ 21.7 µM) | 3.13 (≈ 5.43 µM) | 3.13 (≈ 5.43 µM) | 3.13 (≈ 5.43 µM) | 3.13 (≈ 5.43 µM) | 0.78 (≈ 1.35 µM) | 12.5 (≈ 21.7 µM) | MCC at 24 h ([1]; sheep, red blood cells): 25 µg/mL; activity against S. marcescens (S. marcescens (13880) [3]; in words): found even against S. marcescens; also recorded: effective against S. marcescens; MIC (K. pneumoniae (13883); K. pneumoniae (13883), 35° C., 24 hours): 8.25 µg/mL (≈ 14.3 µM); MIC (S. pyrogenes (19615)): 0.78 µg/mL (≈ 1.35 µM); antimicrobial activity (in words) [5]: highly active |
| CC(C)C(CC[C@@H](C)[C@H]1CC[C@H]2[C@@H]3[C@H](O)C[C@H]4C[C@@H](NCCCNCCCCN)CC[C@]4(C)[C@H]3CC[C@]12C)OS(=O)(=O)O (stereo partly drawn) [squalamine, 3β-N-1-{N-[3-(4-aminobutyl)]-1,3-diaminopropane}-7α,24.zeta.-dihydroxy-5α-cholestane 24-sulfate] |  |  |  |  |  |  |  |  |  |  |  |  |  |  |  |  |  |  |  |  | resistance of S. marcescens to squalamine (S. marcescens (13880) [6]): known to be resistant to squalamine; antimicrobial activity of squalamine (in words) [7]: potent antimicrobial activity against a broad spectrum of microorganisms; MIC of squalamine (P. aeruginosa (2853) [8]): 4 to 8 µg/mL; MIC of squalamine (S. aureus (29213) [9]): 1 to 2 µg/mL; MIC of squalamine (P. vulgaris): 4 to 8 µg/mL |
